Results from PubChem BioAssay (NCI).
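The concentration for 50% growth inhibition is given as GI50. At the TGI there is no net growth.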

Legend:
Test in all cases: NCI anticancer screen, dose series, 384-well format
HCC-2998 colon = system: HCC-2998 colon
HOP-62 NSCLC = system: HOP-62 NSCLC
PC-3 prostate = system: PC-3 prostate
NCI-H226 lung = system: NCI-H226 lung
786-0 renal = system: 786-0 renal
SF-295 CNS = system: SF-295 CNS
HCT-116 colon = system: HCT-116 colon
ACHN renal = system: ACHN renal
BT-549 breast = system: BT-549 breast
UO-31 renal = system: UO-31 renal
OVCAR-8 ovarian = system: OVCAR-8 ovarian
MDA-MB-435 melanoma = system: MDA-MB-435 melanoma
U251 glioblastoma = system: U251 glioblastoma
CCRF-CEM leukemia = system: CCRF-CEM leukemia
CAKI-1 renal = system: CAKI-1 renal
SK-MEL-2 melanoma = system: SK-MEL-2 melanoma
MDA-MB-231 breast = system: MDA-MB-231 breast
A549 NSCLC = system: A549 NSCLC
HL-60(TB) leukemia = system: HL-60(TB) leukemia
MDA-MB-468 breast = system: MDA-MB-468 breast
OVCAR-3 ovarian = system: OVCAR-3 ovarian
M14 melanoma = system: M14 melanoma
KM12 colon = system: KM12 colon
UACC-62 melanoma = system: UACC-62 melanoma
NCI-H522 lung = system: NCI-H522 lung
SW-620 colon = system: SW-620 colon
MCF7 breast = system: MCF7 breast
OVCAR-4 ovarian = system: OVCAR-4 ovarian
MALME-3M melanoma = system: MALME-3M melanoma
K-562 leukemia = system: K-562 leukemia
SNB-75 CNS = system: SNB-75 CNS
NCI-H460 NSCLC = system: NCI-H460 NSCLC
HT29 colon = system: HT29 colon
SNB-19 CNS = system: SNB-19 CNS
RXF 393 renal = system: RXF 393 renal
SK-MEL-28 melanoma = system: SK-MEL-28 melanoma
SK-MEL-5 melanoma = system: SK-MEL-5 melanoma
HCT-15 colon = system: HCT-15 colon
SN12C renal = system: SN12C renal
IGROV1 ovarian = system: IGROV1 ovarian
UACC-257 melanoma = system: UACC-257 melanoma
NCI-H23 lung = system: NCI-H23 lung
SF-268 CNS = system: SF-268 CNS
T-47D breast = system: T-47D breast
SR leukemia = system: SR leukemia
A498 renal = system: A498 renal
HS 578T breast = system: HS 578T breast

## C[C@@H](Oc1cc(NS(=O)(=O)N2CCC2)nc(SCc2cccc(F)c2F)n1)[C@@H](O)CO
HCC-2998 colon
  GI50: > 77.4 µM
  TGI: > 100 µM
HOP-62 NSCLC
  GI50: > 100 µM
  TGI: > 100 µM
PC-3 prostate
  GI50: > 76.7 µM
  TGI: > 100 µM
NCI-H226 lung
  GI50: > 89.3 µM
  TGI: > 100 µM
786-0 renal
  GI50: > 100 µM
  TGI: > 100 µM
SF-295 CNS
  GI50: > 100 µM
  TGI: > 100 µM
HCT-116 colon
  GI50: > 100 µM
  TGI: > 100 µM
ACHN renal
  GI50: > 100 µM
  TGI: > 100 µM
BT-549 breast
  GI50: > 71.9 µM
  TGI: > 100 µM
UO-31 renal
  GI50: 17.9 µM
  TGI: 34.3 µM
OVCAR-8 ovarian
  GI50: > 100 µM
  TGI: > 100 µM
MDA-MB-435 melanoma
  GI50: > 100 µM
  TGI: > 100 µM
U251 glioblastoma
  GI50: > 100 µM
  TGI: > 100 µM
CCRF-CEM leukemia
  GI50: > 63.3 µM
  TGI: > 100 µM
CAKI-1 renal
  GI50: > 60.8 µM
  TGI: > 100 µM
SK-MEL-2 melanoma
  GI50: > 79.6 µM
  TGI: > 100 µM
MDA-MB-231 breast
  GI50: > 75.9 µM
  TGI: > 100 µM
A549 NSCLC
  GI50: > 100 µM
  TGI: > 100 µM
HL-60(TB) leukemia
  GI50: > 36 µM
  TGI: > 51.2 µM
MDA-MB-468 breast
  GI50: > 78.2 µM
  TGI: > 100 µM
OVCAR-3 ovarian
  GI50: > 73.9 µM
  TGI: > 100 µM
M14 melanoma
  GI50: > 95.7 µM
  TGI: > 100 µM
KM12 colon
  GI50: 98.3 µM
  TGI: > 100 µM
UACC-62 melanoma
  GI50: > 57.2 µM
  TGI: > 100 µM
NCI-H522 lung
  GI50: > 43.5 µM
  TGI: > 100 µM
SW-620 colon
  GI50: > 100 µM
  TGI: > 100 µM
MCF7 breast
  GI50: > 52.1 µM
  TGI: > 100 µM
OVCAR-4 ovarian
  GI50: > 72.7 µM
  TGI: > 100 µM
MALME-3M melanoma
  GI50: > 82.1 µM
  TGI: > 100 µM
K-562 leukemia
  GI50: > 68.3 µM
  TGI: > 100 µM
SNB-75 CNS
  GI50: > 100 µM
  TGI: > 100 µM
NCI-H460 NSCLC
  GI50: > 100 µM
  TGI: > 100 µM
HT29 colon
  GI50: > 100 µM
  TGI: > 100 µM
SNB-19 CNS
  GI50: > 100 µM
  TGI: > 100 µM
RXF 393 renal
  GI50: > 81.5 µM
  TGI: > 100 µM
SK-MEL-28 melanoma
  GI50: > 100 µM
  TGI: > 100 µM
SK-MEL-5 melanoma
  GI50: > 59.4 µM
  TGI: > 100 µM
HCT-15 colon
  GI50: > 100 µM
  TGI: > 100 µM
SN12C renal
  GI50: > 100 µM
  TGI: > 100 µM
IGROV1 ovarian
  GI50: > 100 µM
  TGI: > 100 µM
UACC-257 melanoma
  GI50: > 87.1 µM
  TGI: > 100 µM
NCI-H23 lung
  GI50: 99.2 µM
  TGI: > 100 µM
SF-268 CNS
  GI50: > 100 µM
  TGI: > 100 µM
T-47D breast
  GI50: > 100 µM
  TGI: > 100 µM
SR leukemia
  GI50: > 100 µM
  TGI: > 100 µM
A498 renal
  GI50: > 79 µM
  TGI: > 100 µM
HS 578T breast
  GI50: 57.7 µM
  TGI: > 100 µM

## COc1cc(C)[nH]c(=O)c1CN1CCc2c(Cl)cc([C@H](OC)C3COC3)c(Cl)c2C1=O
HCC-2998 colon
  GI50: > 100 µM
  TGI: > 100 µM
HOP-62 NSCLC
  GI50: > 100 µM
  TGI: > 100 µM
PC-3 prostate
  GI50: > 100 µM
  TGI: > 100 µM
NCI-H226 lung
  GI50: > 100 µM
  TGI: > 100 µM
786-0 renal
  GI50: > 100 µM
  TGI: > 100 µM
SF-295 CNS
  GI50: > 100 µM
  TGI: > 100 µM
HCT-116 colon
  GI50: > 100 µM
  TGI: > 100 µM
ACHN renal
  GI50: > 100 µM
  TGI: > 100 µM
BT-549 breast
  GI50: > 100 µM
  TGI: > 100 µM
UO-31 renal
  GI50: > 100 µM
  TGI: > 100 µM
OVCAR-8 ovarian
  GI50: > 100 µM
  TGI: > 100 µM
MDA-MB-435 melanoma
  GI50: > 100 µM
  TGI: > 100 µM
U251 glioblastoma
  GI50: > 100 µM
  TGI: > 100 µM
CCRF-CEM leukemia
  GI50: > 75.8 µM
  TGI: > 100 µM
CAKI-1 renal
  GI50: > 100 µM
  TGI: > 100 µM
SK-MEL-2 melanoma
  GI50: > 100 µM
  TGI: > 100 µM
MDA-MB-231 breast
  GI50: > 78.3 µM
  TGI: > 100 µM
A549 NSCLC
  GI50: > 100 µM
  TGI: > 100 µM
HL-60(TB) leukemia
  GI50: > 78.5 µM
  TGI: > 100 µM
MDA-MB-468 breast
  GI50: > 100 µM
  TGI: > 100 µM
OVCAR-3 ovarian
  GI50: > 100 µM
  TGI: > 100 µM
M14 melanoma
  GI50: > 100 µM
  TGI: > 100 µM
KM12 colon
  GI50: > 100 µM
  TGI: > 100 µM
UACC-62 melanoma
  GI50: > 100 µM
  TGI: > 100 µM
NCI-H522 lung
  GI50: > 100 µM
  TGI: > 100 µM
SW-620 colon
  GI50: > 100 µM
  TGI: > 100 µM
MCF7 breast
  GI50: > 100 µM
  TGI: > 100 µM
OVCAR-4 ovarian
  GI50: > 100 µM
  TGI: > 100 µM
MALME-3M melanoma
  GI50: > 100 µM
  TGI: > 100 µM
K-562 leukemia
  GI50: > 100 µM
  TGI: > 100 µM
SNB-75 CNS
  GI50: > 100 µM
  TGI: > 100 µM
NCI-H460 NSCLC
  GI50: > 100 µM
  TGI: > 100 µM
HT29 colon
  GI50: > 100 µM
  TGI: > 100 µM
SNB-19 CNS
  GI50: > 100 µM
  TGI: > 100 µM
RXF 393 renal
  GI50: > 100 µM
  TGI: > 100 µM
SK-MEL-28 melanoma
  GI50: > 100 µM
  TGI: > 100 µM
SK-MEL-5 melanoma
  GI50: > 100 µM
  TGI: > 100 µM
HCT-15 colon
  GI50: > 100 µM
  TGI: > 100 µM
SN12C renal
  GI50: > 100 µM
  TGI: > 100 µM
IGROV1 ovarian
  GI50: > 100 µM
  TGI: > 100 µM
UACC-257 melanoma
  GI50: > 100 µM
  TGI: > 100 µM
NCI-H23 lung
  GI50: > 100 µM
  TGI: > 100 µM
SF-268 CNS
  GI50: > 100 µM
  TGI: > 100 µM
T-47D breast
  GI50: > 91.9 µM
  TGI: > 100 µM
SR leukemia
  GI50: > 100 µM
  TGI: > 100 µM
A498 renal
  GI50: > 100 µM
  TGI: > 100 µM
HS 578T breast
  GI50: > 100 µM
  TGI: > 100 µM
